Patent publication US9867825B2, “Pharmaceutical combination comprising binimetinib” (Novartis AG, priority 2012, dated 2018)

Tests used:
[1] = system: Hs 944.T xenografts; experiment: Compound A efficacy in Hs 944.T xenografts in nude mice; type: in vivo, mouse; details: for Change in body weight (%, mean ± SEM) / Change in tumor volume (mm^3, mean ± SEM) / Survival / T/C (%): oral
[2] = system: Hs 944.T melanoma cells with activated NRAS; experiment: BrdU uptake assay, Hs 944.T; type: cell-based; details: Hs 944.T cells
Experimental: (§1) Three melanoma cell lines, MEL-JUSO, SK-MEL2 and Hs 944.T, which harbor the Q61X activating mutation of NRAS, were tested with Compound A and Compound B to measure their sensitivity to the inhibitors.

[3] = system: MEL-JUSO melanoma cells with activated NRAS; experiment: BrdU uptake assay, MEL-JUSO; type: cell-based; details: Homo sapiens
Experimental: as §1

[4] = system: MEL-JUSO xenografts; experiment: Compound A efficacy in MEL-JUSO xenografts in SCID-beige mice; type: in vivo; details: Compound A 150 mg/kg qd, oral
[5] = system: SK-MEL2 melanoma cells with activated NRAS; experiment: BrdU uptake assay, SK-MEL2; type: cell-based; details: Homo sapiens, SK-MEL-2
Experimental: as §1

[6] = system: MEL-JUSO xenografts; experiment: Compound A and Compound B efficacy in MEL-JUSO xenografts (NRAS mutant melanoma); type: in vivo; details: oral
Source text: The oncogenic drivers in a sizable fraction of melanomas are mutant alleles of NRAS that encode one of several variants at position Q61 in the protein. Similar to activated alleles of BRAF, these alleles encode constitutively activated forms of the protein that drive signaling through the MAPK pathway. One consequence of the activation of MAPK signaling is the elevation of cyclin D1 levels that help drive cell cycle progression. […] Based on these observations, the single agent and combination effects of Compound A, and the MEK1/2 inhibitor Compound B, on the in vivo proliferation of MEL-JUSO melanoma model, harboring mutant alleles of NRAS was studied. […] T/C % is defined as the mean change in tumor volume from the time of treatment initiation to the end of study. The % regression is calculated as 100×ΔT/Tinitial if ΔT<0. Complete regression is defined as non-palpable tumor.
All treatments were well-tolerated by the animals with no significant body weight loss observed over the duration of the study (Table 5).

CN(C)C(=O)c1cc2cnc(Nc3ccc(N4CCNCC4)cn3)nc2n1C1CCCC1 [Compound A, 7-Cyclopentyl-2-(5-piperazin-1-yl-pyridin-2-ylamino)-7H-pyrrolo[2,3-d]pyrimidine-6-carboxylic acid dimethylamide]
Animals classified as TR deaths due to body weight loss criteria ([1]; Compound A 150 mg/kg qd): Three animals each from the 150 mg/kg and 250 mg/kg Compound A treatment groups were classified as TR deaths due to body weight loss criteria, and excluded from data analysis. | Change in body weight (%, mean ± SEM) ([1]; Compound A 150 mg/kg qd): −12.7 ± 2.1% | Change in tumor volume (mm^3, mean ± SEM) ([1]; Compound A 150 mg/kg qd): 86 ± 17 mm^3 | Survival ([1]; Compound A 150 mg/kg qd): 5/8 | T/C (%) ([1]; Compound A 150 mg/kg qd): 36% | Animals classified as TR deaths due to body weight loss criteria ([1]; Compound A 250 mg/kg qd): Three animals each from the 150 mg/kg and 250 mg/kg Compound A treatment groups were classified as TR deaths due to body weight loss criteria, and excluded from data analysis. | Change in body weight (%, mean ± SEM) ([1]; Compound A 250 mg/kg qd): −19.7 ± 0.6% | Change in tumor volume (mm^3, mean ± SEM) ([1]; Compound A 250 mg/kg qd): 45 ± 25 mm^3 | Survival ([1]; Compound A 250 mg/kg qd): 5/8 | T/C (%) ([1]; Compound A 250 mg/kg qd): 19% | IC50 [2]: 3830 nM | IC50 [3]: 360 nM | Change in body weight (%, mean ± SEM) [4]: −7.3 ± 1.2% | Change in tumor volume (mm^3, mean ± SEM) [4]: −32 ± 14 mm^3 | Survival [4]: 6/6 | IC50 [5]: 750 nM | Change in body weight (%, mean ± SEM) ([6]; Compound A 75 mg/kg qd): −3.9 ± 1.5% | Change in tumor volume (mm^3, mean ± SEM) ([6]; Compound A 75 mg/kg qd): 236 ± 32 mm^3 | Survival ([6]; Compound A 75 mg/kg qd): 6/6 | T/C (%) ([6]; Compound A 75 mg/kg qd): 47% | Change in body weight (%, mean ± SEM) ([6]; Compound A 150 mg/kg qd): −3.9 ± 2.1% | Change in tumor volume (mm^3, mean ± SEM) ([6]; Compound A 150 mg/kg qd): 157 ± 33 mm^3 | Survival ([6]; Compound A 150 mg/kg qd): 6/6 | T/C (%) ([6]; Compound A 150 mg/kg qd): 32% | Change in body weight (%, mean ± SEM) ([6]; Compound A 250 mg/kg qd): −2.7 ± 1.6% | Change in tumor volume (mm^3, mean ± SEM) ([6]; Compound A 250 mg/kg qd): 9 ± 11 mm^3 | Survival ([6]; Compound A 250 mg/kg qd): 6/6 | T/C (%) ([6]; Compound A 250 mg/kg qd): 2%

Cn1cnc2c(F)c(Nc3ccc(Br)cc3F)c(C(=O)NOCCO)cc21 [Compound B, 6-(4-bromo-2-fluorophenylamino)-7-fluoro-3-methyl-3H-benzoimidazole-5-carboxylic acid (2-hydroxyethyoxy)-amide]
IC50 [2]: 554 nM | IC50 [3]: 24 nM | IC50 [5]: 990 nM | Change in body weight (%, mean ± SEM) ([6]; Compound B 3.5 mg/kg bid): −0.3 ± 2.1% | Change in tumor volume (mm^3, mean ± SEM) ([6]; Compound B 3.5 mg/kg bid): 59 ± 24 mm^3 | Survival ([6]; Compound B 3.5 mg/kg bid): 6/6 | T/C (%) ([6]; Compound B 3.5 mg/kg bid): 12% | Change in body weight (%, mean ± SEM) ([6]; Compound B 10 mg/kg bid): 5.1 ± 1.1% | Change in tumor volume (mm^3, mean ± SEM) ([6]; Compound B 10 mg/kg bid): −47 ± 11 mm^3 | Regression (%) ([6]; Compound B 10 mg/kg bid): 38% | Survival ([6]; Compound B 10 mg/kg bid): 6/6
